Measurements: US20240300927A1, “AMIDES AS CBL-B INHIBITORS” (Genentech, Inc., priority 2021, published 2024)
Values after ≈ are worked out from the molar mass of the structure shown. Like-named read-outs stand apart in the source and are kept apart here.

Key:
c-Cbl = c-Cbl (Homo sapiens (Human), UniProt P22681); experiment: C-cbl LCK Ub TR-FRET assay (C-cbl Lck HTRF); type: biochemical
Outline: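 Biotin-Cbl-b (16 nM) or biotin-c-Cbl (12 nM) at 2× preincubated with compound 60 min, then His-LCK (120 nM), 1 mM ATP and MgCl2 (2× mix) added for 90 min at RT. Buffer: HEPES pH 7.0, DTT. UBE2D2–HA-ubiquitin transfer read by TR-FRET (665/615 nm); IC50 versus no-LCK and DMSO controls, 10-point dilutions.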

PBMCs = experiment: PBMC IL-2 assay; type: cell-based; conditions: read-out: PBMC IL-2 Cell EC50
Protocol: Immune response to compounds described herein can be assessed via a PBMC IL-2 assay, conducted according to the following protocol. PBMCs (#A19K379053, A19K261022; TPCS) are thawed into complete medium: 1640 medium (#2085568; Gibco), 10% FBS (#SH30084.03; HyClone), and 1× pen/strep. Compounds are 3-fold serially diluted in DMSO in a 384-well polypropylene plate (#P-05525-BC; Labcyte) using the Tecan EVO to generate a source plate with 10 concentrations of each compound, top concentration=4 mM. Compounds are dispensed into a 96-well plate (#6005680; PerkinElmer) using a Labcyte Echo; final dispensed volume of each control and compound is 1000 nL (final DMSO=0.5%). After recovery overnight, cells are seeded at 2×10^5 cells/well into 96-well plates containing compounds and incubated at 37° C., 5% CO2 for 30 min. Cells are stimulated by adding 20 μL/well 1/10 TransAct (#130-111-160; Miltenyi) diluted in complete medium, placed on a shaker for 2 min at 600 rpm, and incubated for 24 h at 37° C., 5% CO2. Plates are centrifuged at 1200 rpm for 5 min and 120 μL cell supernatant collected. Supernatants are diluted 10-fold and IL-2 concentrations of each sample are determined using the IL-2 MSD kit (#K151AHB-4; MSD) per the manufacturer's instructions.

[1] = In vitro plasma protein binding, human; type: in vitro ADME; conditions: pooled human plasma, read-out: PPB % (H/R/M) (converted)
Protocol: In vitro plasma protein binding (n=2) was determined in pooled mouse, rat, and human plasma (Bioreclamation, Inc., Hicksville, NY) by equilibrium dialysis using a Rapid Equilibrium Dialysis (RED) device (Pierce Biotechnology/Thermo Fisher Scientific; Rockford, IL) with a molecular weight cut-off of 8000 Daltons. Test compounds were added to plasma. Plasma samples were equilibriated with phosphate-buffered saline at 37° C. for 4 hours. Compound concentrations in post-dialysis plasma and buffer samples were measured by LC-MS/MS. The percent unbound fraction in plasma for each compound was calculated by dividing the compound concentration in the post-dialysis buffer by that measured in the post-dialysis plasma and multiplying by 100%.

[2] = Liver microsomes metabolic stability, human; type: in vitro ADME
Kinetic solubility = type: physicochemical; conditions: kinetic from dmso stock

c-Cbl, sequence (P22681 47-435): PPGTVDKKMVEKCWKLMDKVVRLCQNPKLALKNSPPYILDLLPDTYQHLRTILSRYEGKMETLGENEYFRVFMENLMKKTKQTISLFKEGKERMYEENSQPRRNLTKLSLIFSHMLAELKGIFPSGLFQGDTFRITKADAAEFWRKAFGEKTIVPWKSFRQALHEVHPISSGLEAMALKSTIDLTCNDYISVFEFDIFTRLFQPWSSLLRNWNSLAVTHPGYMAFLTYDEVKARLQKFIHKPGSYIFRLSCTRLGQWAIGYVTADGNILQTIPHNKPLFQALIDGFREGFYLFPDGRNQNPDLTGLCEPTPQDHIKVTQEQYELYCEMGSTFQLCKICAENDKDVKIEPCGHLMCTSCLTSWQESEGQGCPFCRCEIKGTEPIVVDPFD

Molecule `CC(C)[C@H]1CN(C)CCN1Cc1cc(C(=O)Nc2cccc(C3(Cc4nncn4C)CC(F)(F)C3)c2)nc(C2CC2)c1` [Compound 224, (S)-6-cyclopropyl-N-(3-(3,3-difluoro-1-((4-methyl-4H-1,2,4-triazol-3-yl)methyl)cyclobutyl)phenyl)-4-((2-isopropyl-4-methylpiperazin-1-yl)methyl)picolinamide] has an IC50 (c-Cbl) of 5 nM, an EC50 (PBMCs) of 32 nM and a fraction unbound at 4 h [1] of 0.14. For the same molecule, the “LM (H/R/M/D/C)” value [2] was 18, the solubility (Kinetic solubility; value in parentheses, not explained, read-out: Kinet. Solub. (uM), second value in parentheses) was 8.5 µM (≈ 4.91 µg/mL) and the solubility (Kinetic solubility; read-out: Kinet. Solub.) was 8.3 µM (≈ 4.8 µg/mL).
